From patent US20230233580A1, “USE OF OXYGENATED CHOLESTEROL SULFATES FOR CANCERS AND NON-CANCEROUS TRANSFORMATIONS RELATED TO EPSTEIN-BARR VIRUS” (priority 2020, published 2023)

How the values were obtained:
[1] = Metabolite profiling of plasma and feces, oral dose; assay type: in vivo, rats; conditions: oral 75 mg/kg
Description: Radiolabeled components in plasma and feces extracts were profiled and identified using radio-high performance liquid chromatography (HPLC) and high performance liquid chromatography/mass spectrometry (HPLC/MS) methods.

[2] = system: 3 DNMTs and 9 other epigenetic enzymes; assay: Enzyme kinetic study of epigenetic enzymes; assay type: biochemical; conditions: for effect on enzymatic activities: controls
[3] = Excretion mass balance, intravenous dose; assay type: in vivo, male Sprague Dawley rats; conditions: over 168 hours, intravenous 10 mg/kg, rats
Description: (§1) The objectives of this study were to determine the plasma pharmacokinetics of [4-^14C]-25HC3S-derived radioactivity in male Sprague Dawley rats, determine the routes of elimination and excretion mass balance of [4-^14C]-25HC3S-derived radioactivity in male Sprague Dawley rats, determine the tissue distribution and tissue pharmacokinetics of [4-^14C]-25HC3S-derived radioactivity using quantitative whole body autoradiography methods in male Sprague Dawley and Long Evans rats following a single intravenous (bolus) dose, and to provide plasma, urine, and fecal homogenate samples for metabolite profiling of [4-^14C]-25HC3S-derived radioactivity.
(§2) Nine male Sprague Dawley rats (Group 1) were designated for the pharmacokinetic phase, 3 male Sprague Dawley rats (Group 2) for the excretion mass balance phase, and 7 male Sprague Dawley rats (Group 3) and 9 male Long Evans rats (Group 4) for the tissue distribution phase. All animals received a single intravenous dose of [^14C]-25HC3S at 10 mg/kg and a target radioactivity of 225 pCi/kg. […] Following blood collection, animals were euthanized by CO2 inhalation and carcasses frozen in a dry ice/hexane bath for processing by quantitative whole body autoradiography. Whole blood, plasma, urine, feces, cage rinse, and cage wash were analyzed for total radioactivity by liquid scintillation counting.

[4] = Tissue distribution by quantitative whole body autoradiography, intravenous dose; assay type: in vivo, male Sprague Dawley rats; conditions: intravenous 10 mg/kg
Protocol: as §2, with “[…] Blood samples were collected from all Group 1” for “All”, “animals” for “animals received a single intravenous dose of [^14C]-25HC3S”, “approximately 0.083, 0.25, 0.5, 1, 2, 4, 8, 12, 24, 48,” for “10 mg/kg”, “72 hours post-dose. Urine and feces were collected from all Group 2 animals periodically through 168 hours post-dose.” for “a target radioactivity of 225 pCi/kg.”

[5] = Excretion mass balance, oral dose; assay type: in vivo; conditions: oral (gavage) 75 mg/kg, rats
[6] = Plasma pharmacokinetics of radioactivity, oral dose; assay type: in vivo; conditions: single oral (gavage) dose 75 mg/kg, rats
[7] = Tissue distribution by quantitative whole body autoradiography, oral dose; assay type: in vivo, male Sprague Dawley rats
[8] = Plasma pharmacokinetics of radioactivity, intravenous dose; assay type: in vivo, male Sprague Dawley rats; conditions: single intravenous (bolus) dose 10 mg/kg, rats
Description: as §1
as §2, with “[…]. Blood samples were collected from all Group 1 animals at approximately 0.083, 0.25, 0.5, 1, 2, 4, 8, 12, 24, 48, and 72 hours post-dose. Urine and feces were collected from all Group 2 animals periodically through 168 hours post-dose.” for “pCi/kg.”

[9] = Tissue distribution by quantitative whole body autoradiography, intravenous dose, pigmented rats; assay type: in vivo, male Long Evans rats; conditions: intravenous 10 mg/kg
Description: as §1, §2

[10] = calculated using AUClast, oral 75 mg/kg

C[C@H](CCCC(C)(C)O)[C@H]1CC[C@H]2[C@@H]3CC=C4C[C@@H](O)CC[C@]4(C)[C@H]3CC[C@]12C [25HC, 25-Hydroxycholesterol, reference compound]
amount in feces, % of total dose ([1]; 0 to 168 hours post-dose pools): 1.9 % of total dose
relative observed intensity (ROI) in plasma ([1]; 2 hour post-dose plasma): 37%

C[C@@H](CO)CCC[C@@H](C)[C@H]1CC[C@H]2[C@@H]3CC=C4C[C@@H](O)CC[C@]4(C)[C@H]3CC[C@]12C [27HC, 27-Hydroxycholesterol]
effect on other enzymes (than DNMT-1) [2]: no effect

CC(C)CCC[C@@H](C)[C@H]1CC[C@H]2[C@@H]3CC=C4C[C@@H](O)CC[C@]4(C)[C@H]3CC[C@]12C [Xol, Cholesterol]
effect on enzymatic activities [2]: did not significantly affect

C[C@H](CCCC(C)(C)O)[C@H]1CC[C@H]2[C@@H]3CC=C4[14CH2][C@@H](OS(=O)(=O)O)CC[C@]4(C)[C@H]3CC[C@]12C [[4-^14C]-25HC3S]
dose recovered in urine, feces, and cage rinse [3]: approximately 100.2%
recovered radioactivity in feces [3]: 83.0%
tissue:plasma ratio, liver ([4]; calculated using AUClast): 11.4
tissue:plasma ratio, small intestine (wall) ([4]; calculated using AUClast): 7.44
plasma:whole blood AUClast ratio ([4]; Group 3): 0.79
whole blood AUClast ([4]; Group 3): 25,200 h*ng-equiv./g
maximum plasma concentration ([4]; QWBA phase): 12,400 ng-equiv./g
AUClast in the liver ([4]; derived radioactivity): ≤ 364,000 h-ng/g
tissue distribution of compound and/or metabolites ([4]; detected in all tissues except the eye (lens)): broadly distributed
dose recovered in urine, feces, and cage rinse [5]: approximately 94.5%
recovered radioactivity in feces [5]: 94.2%
plasma AUClast [6]: 96,400 h-ng equiv./g
terminal elimination phase T1/2 [6]: 27.3 h
tissue:plasma ratio, adrenal gland [7, 10]: 6.64
tissue:plasma ratio, liver [7, 10]: 6.96
tissue:plasma ratio, small intestine (wall) [7, 10]: 15.4
Skin, thymus, prostate, and pituitary tissue concentrations ([7]; oral 75 mg/kg): < 3000 ng equiv./g
tissue Tmax ([7]; oral 75 mg/kg): ≤ 6 hours post-dose
tissue distribution of compound and/or metabolites ([7]; oral 75 mg/kg, detected in all tissues except the eye (lens)): broadly distributed
plasma:whole blood AUClast ratio ([7]; oral (gavage) 75 mg/kg): 1.12
whole blood AUClast ([7]; oral (gavage) 75 mg/kg): 127,000 h-ng equiv./g
terminal elimination phase T1/2, plasma ([8]; PK phase): 26.6 h
mean plasma C0 ([8]; total radioactivity): 25,900 ng-equiv./g
plasma AUClast ([8]; total radioactivity): 27,900 h*ng-equiv./g
plasma or whole blood concentrations versus Sprague Dawley rats ([9]; first 168 hours post-dose): no substantial difference
binding to pigmented or non-pigmented skin or the uveal tract [9]: no difference

CC(C)CCC[C@@H](C)[C@H]1CC[C@H]2[C@@H]3CC=C4C[C@@H](OS(=O)(=O)O)CC[C@]4(C)[C@H]3CC[C@]12C [Xol3S, 5-cholesten-3β-ol, 3-sulfate]
effect on enzymatic activities [2]: did not significantly affect

desmosterol sulfate
detection in plasma or feces samples ([1]; radiolabeled): not found
